Assay results from PubChem BioAssay (NCI).
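Assay format: 96-well plates, 48-hour exposure. GI50 marks 50% less growth. TGI marks complete inhibition of growth.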

Tests used:
Test in all cases: growth of human tumour cells (NCI), 48 h
NCI-H460 lung = system: NCI-H460 lung
UACC-257 melanoma = system: UACC-257 melanoma
ACHN renal = system: ACHN renal
SF-268 CNS = system: SF-268 CNS
A498 renal = system: A498 renal
SK-MEL-2 melanoma = system: SK-MEL-2 melanoma
MALME-3M melanoma = system: MALME-3M melanoma
NCI-H23 lung = system: NCI-H23 lung
LOX IMVI melanoma = system: LOX IMVI melanoma
SW-620 colon = system: SW-620 colon
MDA-MB-231 breast = system: MDA-MB-231 breast
RXF 393 renal = system: RXF 393 renal
TK-10 renal = system: TK-10 renal
SK-MEL-5 melanoma = system: SK-MEL-5 melanoma
HCT-15 colon = system: HCT-15 colon
SNB-19 CNS = system: SNB-19 CNS
A549 NSCLC = system: A549 NSCLC
OVCAR-8 ovarian = system: OVCAR-8 ovarian
NCI-H226 lung = system: NCI-H226 lung
DU-145 prostate = system: DU-145 prostate
M14 melanoma = system: M14 melanoma
HCC-2998 colon = system: HCC-2998 colon
HL-60(TB) leukemia = system: HL-60(TB) leukemia
SNB-75 CNS = system: SNB-75 CNS
OVCAR-5 ovarian = system: OVCAR-5 ovarian
NCI/ADR-RES ovarian = system: NCI/ADR-RES ovarian
MCF7 breast = system: MCF7 breast
786-0 renal = system: 786-0 renal
OVCAR-3 ovarian = system: OVCAR-3 ovarian
HOP-92 NSCLC = system: HOP-92 NSCLC
SN12C renal = system: SN12C renal
CCRF-CEM leukemia = system: CCRF-CEM leukemia
SK-MEL-28 melanoma = system: SK-MEL-28 melanoma
HT29 colon = system: HT29 colon
PC-3 prostate = system: PC-3 prostate
SR leukemia = system: SR leukemia
HS 578T breast = system: HS 578T breast
NCI-H522 lung = system: NCI-H522 lung
K-562 leukemia = system: K-562 leukemia
SF-295 CNS = system: SF-295 CNS
BT-549 breast = system: BT-549 breast
UACC-62 melanoma = system: UACC-62 melanoma
CAKI-1 renal = system: CAKI-1 renal
MOLT-4 leukemia = system: MOLT-4 leukemia
MDA-MB-435 = system: MDA-MB-435
U251 CNS = system: U251 CNS
T-47D breast = system: T-47D breast
IGROV1 ovarian = system: IGROV1 ovarian
HCT-116 colon = system: HCT-116 colon
COLO 205 colon = system: COLO 205 colon
UO-31 renal = system: UO-31 renal
HOP-62 NSCLC = system: HOP-62 NSCLC
SK-OV-3 ovarian = system: SK-OV-3 ovarian
EKVX NSCLC = system: EKVX NSCLC
RPMI-8226 leukemia = system: RPMI-8226 leukemia
SF-539 CNS = system: SF-539 CNS
KM12 colon = system: KM12 colon
OVCAR-4 ovarian = system: OVCAR-4 ovarian

## Sc1cccc2cccnc12
NCI-H460 lung
  GI50: 0.389 µM
  TGI: 6.23 µM
UACC-257 melanoma
  GI50: 1.37 µM
  TGI: 12.3 µM
ACHN renal
  GI50: 0.697 µM
  TGI: 12.8 µM
SF-268 CNS
  GI50: 1.35 µM
  TGI: 13.5 µM
A498 renal
  GI50: 2.45 µM
  TGI: 8.8 µM
SK-MEL-2 melanoma
  GI50: 2.58 µM
  TGI: 15.3 µM
MALME-3M melanoma
  GI50: 1.06 µM
  TGI: 14 µM
NCI-H23 lung
  GI50: 1.91 µM
  TGI: 16.8 µM
LOX IMVI melanoma
  GI50: 0.57 µM
  TGI: 11.1 µM
SW-620 colon
  GI50: 1.07 µM
  TGI: 16.2 µM
MDA-MB-231 breast
  GI50: 1.36 µM
  TGI: 14.7 µM
RXF 393 renal
  GI50: 1.4 µM
  TGI: 8.28 µM
TK-10 renal
  GI50: 4.16 µM
  TGI: 15.6 µM
SK-MEL-5 melanoma
  GI50: 0.822 µM
  TGI: 4.25 µM
HCT-15 colon
  GI50: 0.427 µM
  TGI: 14.4 µM
SNB-19 CNS
  GI50: 1.82 µM
  TGI: 17.3 µM
A549 NSCLC
  GI50: 0.497 µM
  TGI: 11.5 µM
OVCAR-8 ovarian
  GI50: 0.537 µM
  TGI: 15.3 µM
NCI-H226 lung
  GI50: 1.61 µM
  TGI: 8.83 µM
DU-145 prostate
  GI50: 0.626 µM
  TGI: 15.9 µM
M14 melanoma
  GI50: 0.457 µM
  TGI: 6.09 µM
HCC-2998 colon
  GI50: 3.49 µM
  TGI: 16.2 µM
HL-60(TB) leukemia
  GI50: 1.02 µM
  TGI: 7.21 µM
SNB-75 CNS
  GI50: 2.72 µM
  TGI: 11.6 µM
OVCAR-5 ovarian
  GI50: 4.1 µM
  TGI: 17.7 µM
NCI/ADR-RES ovarian
  GI50: 0.955 µM
  TGI: 9.21 µM
MCF7 breast
  GI50: 0.484 µM
  TGI: 11.6 µM
786-0 renal
  GI50: 1.22 µM
  TGI: 14.3 µM
OVCAR-3 ovarian
  GI50: 0.467 µM
  TGI: 8.01 µM
HOP-92 NSCLC
  GI50: 7.11 µM
  TGI: 20.5 µM
SN12C renal
  GI50: 1.14 µM
  TGI: 15.1 µM
CCRF-CEM leukemia
  GI50: 0.392 µM
  TGI: 24.5 µM
SK-MEL-28 melanoma
  GI50: 1.15 µM
  TGI: 16.2 µM
HT29 colon
  GI50: 0.918 µM
  TGI: 11.2 µM
PC-3 prostate
  GI50: 0.577 µM
  TGI: 13.1 µM
SR leukemia
  GI50: 0.28 µM
  TGI: > 56.1 µM
HS 578T breast
  GI50: 2.81 µM
  TGI: 16.4 µM
NCI-H522 lung
  GI50: 2.13 µM
  TGI: 5.66 µM
K-562 leukemia
  GI50: 0.385 µM
  TGI: > 52 µM
SF-295 CNS
  GI50: 0.645 µM
  TGI: 12.8 µM
BT-549 breast
  GI50: 1.46 µM
  TGI: 12.4 µM
UACC-62 melanoma
  GI50: 0.529 µM
  TGI: 7.25 µM
CAKI-1 renal
  GI50: 1.67 µM
  TGI: 14.5 µM
MOLT-4 leukemia
  GI50: 0.55 µM
  TGI: 19.7 µM
MDA-MB-435
  GI50: 2.66 µM
  TGI: 20.5 µM
U251 CNS
  GI50: 0.598 µM
  TGI: 13.9 µM
T-47D breast
  GI50: 3.07 µM
  TGI: 12.3 µM
IGROV1 ovarian
  GI50: 0.541 µM
  TGI: 12.6 µM
HCT-116 colon
  GI50: 0.411 µM
  TGI: 7.8 µM
COLO 205 colon
  GI50: 2.32 µM
  TGI: 9.38 µM
UO-31 renal
  GI50: 0.616 µM
  TGI: 11.9 µM
HOP-62 NSCLC
  GI50: 1.11 µM
  TGI: 12.3 µM
SK-OV-3 ovarian
  GI50: 3.04 µM
  TGI: 13.8 µM
EKVX NSCLC
  GI50: 1.31 µM
  TGI: 12.9 µM
RPMI-8226 leukemia
  GI50: 2.9 µM
  TGI: 30.3 µM
SF-539 CNS
  GI50: 0.776 µM
  TGI: 12.9 µM
KM12 colon
  GI50: 0.874 µM
  TGI: 12.1 µM
OVCAR-4 ovarian
  GI50: 0.445 µM
  TGI: 12.7 µM

## CCC(=C(c1ccc(OCCN2CCCCC2)cc1)c1ccc(OCCN2CCCCC2)cc1)c1ccc(Cl)cc1
NCI-H460 lung
  GI50: 5.7 µM
  TGI: > 16.7 µM
UACC-257 melanoma
  GI50: 3.47 µM
  TGI: 8.08 µM
ACHN renal
  GI50: 7.12 µM
  TGI: > 16.7 µM
SF-268 CNS
  GI50: 6.7 µM
  TGI: > 16.7 µM
A498 renal
  GI50: > 16.7 µM
  TGI: > 16.7 µM
SK-MEL-2 melanoma
  GI50: 9.5 µM
  TGI: > 16.7 µM
MALME-3M melanoma
  GI50: 2.72 µM
  TGI: 5.21 µM
NCI-H23 lung
  GI50: > 16.7 µM
  TGI: > 16.7 µM
LOX IMVI melanoma
  GI50: 2.31 µM
  TGI: 4.84 µM
SW-620 colon
  GI50: 4.1 µM
  TGI: > 16.7 µM
MDA-MB-231 breast
  GI50: 5.35 µM
  TGI: > 16.7 µM
RXF 393 renal
  GI50: 3.08 µM
  TGI: 16.6 µM
TK-10 renal
  GI50: > 16.7 µM
  TGI: > 16.7 µM
SK-MEL-5 melanoma
  GI50: 2.83 µM
  TGI: 5.3 µM
HCT-15 colon
  GI50: 1.05 µM
  TGI: > 16.7 µM
SNB-19 CNS
  GI50: 5.91 µM
  TGI: > 16.7 µM
A549 NSCLC
  GI50: 7.42 µM
  TGI: > 16.7 µM
OVCAR-8 ovarian
  GI50: > 16.7 µM
  TGI: > 16.7 µM
NCI-H226 lung
  GI50: > 16.7 µM
  TGI: > 16.7 µM
DU-145 prostate
  GI50: > 16.7 µM
  TGI: > 16.7 µM
M14 melanoma
  GI50: 0.669 µM
  TGI: 2.65 µM
HCC-2998 colon
  GI50: 2.8 µM
  TGI: > 16.7 µM
HL-60(TB) leukemia
  GI50: 3.41 µM
  TGI: 9.55 µM
SNB-75 CNS
  GI50: > 16.7 µM
  TGI: > 16.7 µM
OVCAR-5 ovarian
  GI50: > 16.7 µM
  TGI: > 16.7 µM
NCI/ADR-RES ovarian
  GI50: > 16.7 µM
  TGI: > 16.7 µM
MCF7 breast
  GI50: 0.761 µM
  TGI: > 16.7 µM
786-0 renal
  GI50: 2.51 µM
  TGI: 5.09 µM
OVCAR-3 ovarian
  GI50: 11.2 µM
  TGI: > 16.7 µM
HOP-92 NSCLC
  GI50: 1.57 µM
  TGI: > 16.7 µM
SN12C renal
  GI50: > 16.7 µM
  TGI: > 16.7 µM
CCRF-CEM leukemia
  GI50: 1.92 µM
  TGI: > 16.7 µM
SK-MEL-28 melanoma
  GI50: 2.8 µM
  TGI: 5.26 µM
HT29 colon
  GI50: 0.762 µM
  TGI: > 16.7 µM
PC-3 prostate
  GI50: > 16.7 µM
  TGI: > 16.7 µM
SR leukemia
  GI50: 0.425 µM
  TGI: 1.27 µM
HS 578T breast
  GI50: 4.23 µM
  TGI: > 16.7 µM
NCI-H522 lung
  GI50: 7.72 µM
  TGI: > 16.7 µM
K-562 leukemia
  GI50: 0.4 µM
  TGI: 1.07 µM
SF-295 CNS
  GI50: 6.53 µM
  TGI: > 16.7 µM
BT-549 breast
  GI50: > 16.7 µM
  TGI: > 16.7 µM
UACC-62 melanoma
  GI50: 3.09 µM
  TGI: 6.2 µM
CAKI-1 renal
  GI50: 5.74 µM
  TGI: > 16.7 µM
MOLT-4 leukemia
  GI50: 2.77 µM
  TGI: > 16.7 µM
MDA-MB-435
  GI50: 2.61 µM
  TGI: 5.39 µM
U251 CNS
  GI50: 3.42 µM
  TGI: > 16.7 µM
T-47D breast
  GI50: 9.62 µM
  TGI: > 16.7 µM
IGROV1 ovarian
  GI50: 12.9 µM
  TGI: > 16.7 µM
HCT-116 colon
  GI50: 1.56 µM
  TGI: > 16.7 µM
COLO 205 colon
  GI50: 3.59 µM
  TGI: 9.01 µM
UO-31 renal
  GI50: 2.32 µM
  TGI: 7.87 µM
HOP-62 NSCLC
  GI50: > 16.7 µM
  TGI: > 16.7 µM
SK-OV-3 ovarian
  GI50: > 16.7 µM
  TGI: > 16.7 µM
EKVX NSCLC
  GI50: > 16.7 µM
  TGI: > 16.7 µM
RPMI-8226 leukemia
  GI50: 3.6 µM
  TGI: > 16.7 µM
SF-539 CNS
  GI50: 2.55 µM
  TGI: 5.02 µM
KM12 colon
  GI50: > 16.7 µM
  TGI: > 16.7 µM
OVCAR-4 ovarian
  GI50: > 16.7 µM
  TGI: > 16.7 µM
